In ChEMBL document CHEMBL4184249, “Structural development of tetrachlorophthalimides as liver X receptor β (LXRβ)-selective agonists with improved aqueous solubility” (Bioorg Med Chem Lett, 2018):
Converted amounts (≈) assume the structure as drawn. The source made the active and inactive calls. No cut-off for these calls is given here.

Legend:
[1] = target: T1, Oxysterols receptor LXR-alpha (Mus musculus) (UniProt Q9Z0Y9); assay: Agonist activity at mouse LXRalpha expressed in HEK293 cells co-expressing CMX-beta-galactosidase at 30 uM incubated for 16 hrs by luciferase reporter gene assay; type: cell-based
T1 sequence (whole entry): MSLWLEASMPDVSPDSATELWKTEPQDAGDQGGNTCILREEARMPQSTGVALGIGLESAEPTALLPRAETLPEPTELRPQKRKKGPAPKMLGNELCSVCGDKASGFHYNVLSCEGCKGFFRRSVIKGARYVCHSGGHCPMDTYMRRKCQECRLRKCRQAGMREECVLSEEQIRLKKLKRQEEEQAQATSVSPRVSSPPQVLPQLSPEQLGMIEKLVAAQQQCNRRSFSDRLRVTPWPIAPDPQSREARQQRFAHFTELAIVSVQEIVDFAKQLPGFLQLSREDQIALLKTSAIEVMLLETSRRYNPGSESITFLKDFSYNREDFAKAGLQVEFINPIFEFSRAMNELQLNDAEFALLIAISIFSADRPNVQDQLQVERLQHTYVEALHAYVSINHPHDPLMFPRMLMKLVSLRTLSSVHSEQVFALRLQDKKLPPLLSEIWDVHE

[2] = target: T2, Oxysterols receptor LXR-beta (Mus musculus) (UniProt Q60644); assay: Agonist activity at mouse LXRbeta expressed in HEK293 cells co-expressing CMX-beta-galactosidase incubated for 16 hrs by luciferase reporter gene assay relative to T0901317; type: cell-based
T2 sequence (whole entry): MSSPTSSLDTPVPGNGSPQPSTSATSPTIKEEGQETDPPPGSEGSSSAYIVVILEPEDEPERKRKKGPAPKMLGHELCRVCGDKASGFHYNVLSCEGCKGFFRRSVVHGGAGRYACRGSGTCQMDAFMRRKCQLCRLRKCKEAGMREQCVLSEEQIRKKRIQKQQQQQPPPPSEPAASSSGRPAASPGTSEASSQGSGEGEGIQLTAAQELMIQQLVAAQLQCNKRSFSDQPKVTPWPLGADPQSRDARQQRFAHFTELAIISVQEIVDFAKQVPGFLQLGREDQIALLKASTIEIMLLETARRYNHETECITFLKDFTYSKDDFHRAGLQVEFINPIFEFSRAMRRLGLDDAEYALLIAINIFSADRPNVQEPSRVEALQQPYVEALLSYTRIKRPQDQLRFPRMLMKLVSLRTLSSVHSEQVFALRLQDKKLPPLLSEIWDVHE

[3] = target: T3, Retinoic acid receptor alpha (Homo sapiens) (UniProt P10276); assay: Agonist activity at GAL4-tagged RARalpha (unknown origin) expressed in HEK293 cells co-expressing CMX-beta-galactosidase at 0.3 to 30 uM incubated for 16 hrs by luciferase reporter gene assay; type: cell-based
T3 sequence (whole entry): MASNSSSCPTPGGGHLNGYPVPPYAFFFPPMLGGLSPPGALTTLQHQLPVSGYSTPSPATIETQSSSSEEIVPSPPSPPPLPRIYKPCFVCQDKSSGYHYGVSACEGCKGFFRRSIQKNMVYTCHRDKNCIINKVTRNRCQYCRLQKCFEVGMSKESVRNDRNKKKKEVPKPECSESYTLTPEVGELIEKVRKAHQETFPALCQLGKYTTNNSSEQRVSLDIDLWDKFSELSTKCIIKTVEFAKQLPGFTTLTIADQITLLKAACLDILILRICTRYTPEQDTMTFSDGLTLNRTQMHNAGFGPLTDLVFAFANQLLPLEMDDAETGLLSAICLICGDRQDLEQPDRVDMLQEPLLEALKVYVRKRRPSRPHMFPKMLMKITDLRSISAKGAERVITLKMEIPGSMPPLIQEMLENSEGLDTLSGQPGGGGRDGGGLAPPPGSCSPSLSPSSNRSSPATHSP

[4] = target: T4, Retinoic acid receptor RXR-alpha (Homo sapiens) (UniProt P19793); assay: Agonist activity at GAL4-tagged RXRalpha (unknown origin) expressed in HEK293 cells co-expressing CMX-beta-galactosidase at 0.3 to 30 uM incubated for 16 hrs by luciferase reporter gene assay; type: cell-based
T4 sequence (whole entry): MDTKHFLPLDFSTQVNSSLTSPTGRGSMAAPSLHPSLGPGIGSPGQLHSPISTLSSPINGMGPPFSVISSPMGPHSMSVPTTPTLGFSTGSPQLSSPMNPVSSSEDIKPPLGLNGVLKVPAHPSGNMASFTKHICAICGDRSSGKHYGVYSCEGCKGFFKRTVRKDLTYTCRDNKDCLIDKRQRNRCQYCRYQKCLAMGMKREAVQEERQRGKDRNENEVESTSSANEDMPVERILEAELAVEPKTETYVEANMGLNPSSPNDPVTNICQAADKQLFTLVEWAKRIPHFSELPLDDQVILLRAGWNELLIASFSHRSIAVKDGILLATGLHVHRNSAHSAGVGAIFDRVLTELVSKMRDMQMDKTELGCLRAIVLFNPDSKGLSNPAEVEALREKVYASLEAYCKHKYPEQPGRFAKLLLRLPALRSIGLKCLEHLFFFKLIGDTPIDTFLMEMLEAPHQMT

[5] = target: T5, Oxysterols receptor LXR-alpha (Homo sapiens) (UniProt Q13133); assay: Agonist activity at LXRalpha ligand-binding domain (unknown origin) at 0.3 uM incubated for 1.5 hrs using fluorescein-labeled coactivator peptide by TR-FRET competitive binding assay relative to T0901317
T5 sequence (whole entry): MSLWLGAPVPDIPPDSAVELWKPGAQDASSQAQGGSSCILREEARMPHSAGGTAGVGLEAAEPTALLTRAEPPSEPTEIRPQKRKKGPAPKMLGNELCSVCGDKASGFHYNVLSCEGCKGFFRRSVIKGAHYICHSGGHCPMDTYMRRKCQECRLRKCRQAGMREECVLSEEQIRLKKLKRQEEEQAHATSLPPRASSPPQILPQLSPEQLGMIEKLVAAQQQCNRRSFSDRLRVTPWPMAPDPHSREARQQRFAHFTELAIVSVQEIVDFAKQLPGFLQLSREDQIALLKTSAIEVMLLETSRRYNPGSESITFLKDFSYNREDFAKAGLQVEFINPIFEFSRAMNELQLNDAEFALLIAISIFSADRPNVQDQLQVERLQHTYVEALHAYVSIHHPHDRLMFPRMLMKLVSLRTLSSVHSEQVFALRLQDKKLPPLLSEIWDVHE

[6] = Aqueous solubility of the compound in EtOH: 1/15 M phosphate buffer at pH 7.4 1:1 by HPLC method; type: physicochemical

Activity [1]: inactive
Efficacy [2]: 24%
Efficacy [3]: 6%
Activity [4]: inactive
Efficacy [5]: 6%
solubility [6]: 0.015 µg/mL (≈ 0.032 µM)
SMILES: O=C1c2c(Cl)c(Cl)c(Cl)c(Cl)c2C(=O)N1c1ccccc1/C=C/c1cccs1
